{"source": "patent US7572775B2", "about": "“Method of inhibiting intestinal polyps” (Japan as Represented by Director General of Agency of …, priority 2004, dated 2009)", "test_system": "Min mice of a familial adenomatous polyposis model (Apc gene deficient mice, C57BL/6-ApcMin/+)", "assay": "Intestinal polyp suppression test (intestinal polyp assay) in Min mice", "assay_type": "in vivo, mouse", "details": "for Number of polyps/mouse, colon / Number of polyps/mouse, small intestine, central / Number of polyps/mouse, small intestine, distal / Number of polyps/mouse, small intestine, proximal / Number of polyps/mouse, total / Number of polyps, percentage of the result for the 0 dose (control) group, small intestine, central / Number of polyps, percentage of the result for the 0 dose (control) group, small intestine, distal / Number of polyps, percentage of the result for the 0 dose (control) group, small intestine, proximal / Number of polyps, percentage of the result for the 0 dose (control) group, colon / Number of polyps, percentage of the result for the 0 dose (control) group, total: male Min mice; for Number of polyps/mouse, colon / Number of polyps/mouse, small intestine, central / Number of polyps/mouse, small intestine, distal / Number of polyps/mouse, small intestine, proximal / Number of polyps/mouse, total: average ± SE; for Number of polyps, percentage of the result for the 0 dose (control) group, small intestine, proximal: p < 0.01 vs control", "protocol": "The experimental animals were male Min mice of a familial adenomatous polyposis model (Apc (Adenomatous polyposis coli) gene deficient mice, C57BL/6-ApcMin/+, Jackson Laboratory, Bar Harbor, Me.). These mice were purchased at age 5 weeks, and acclimatized for 2 weeks to laboratory conditions (24±2° C., humidity 55%, 12 hours light/12 hours dark cycle, free access to feed and water) before being used in the tests. The feed was “AIN-76A” basic feed (Clea Japan).\nWild-type […] mice (from the same source) were subjected to the same test as a control.\nCompound A was used as the experimental medicine. The compound was mixed to a specific concentration (400 ppm or 800 ppm) with the AIN-76A basic feed for use in the tests.\nFeed comprising a specific amount of the experimental medicine mixed to a specific concentration with basic feed (AIN-76A) was administered to the experimental group mice (2 groups of 10 mice) and comparison group mice (1 group of 10 mice) for 13 weeks from age 7 weeks to age 20 weeks (natural feeding). When death was confirmed during the experiment, however, administration was naturally discontinued.\nA group of 10 mice receiving basic feed (AIN-76A) without the experimental medicine added for the same length of time was set up as a control group (experimental drug non-administration group).\n13 weeks after the start of the experiment the mice in all groups (excluding those which had died) were euthanized, and an intestinal polyp assay was performed as follows.\nThe intestines were removed from the mice in all groups, placed in phosphate buffer containing 10% formalin, and then separated into four parts: (1) the colon, (2) the proximal part of the small intestine (about 4 cm long beginning at the pylorus), (3) the central part of the small intestine (the center of the remaining half of the small intestine) and (4) the distal part of the small intestine (the distal part of the remaining half of the small intestine). Each part was opened longitudinally, and fixed flat between sheets of filter paper in phosphate buffer containing 10% formalin.\nThe number and size of polyps and their distribution in the intestines were counted, measured and evaluated under a stereoscopic microscope. These methods are described in the literature reference(Watanabe, K. et al., “Role of the prostaglandin E receptor subtype EP1 in colon carcinogenesis”, Cancer Res., 59, 5093-6 (1999)).", "key": {"[1]": {"details": "400 ppm in AIN-76A feed for 13 weeks"}, "[2]": {"details": "400 ppm in feed for 13 weeks, p < 0.05 vs control"}, "[3]": {"details": "800 ppm in AIN-76A feed for 13 weeks"}, "[4]": {"details": "800 ppm in feed for 13 weeks, p < 0.05 vs control"}}, "note": "Marks after values point to notes of the source that are not given here."}
{"smiles": "CCOP(=O)(Cc1ccc(C(=O)Nc2ccc(Br)cc2C#N)cc1)OCC", "note": "[Compound A, 4-diethoxyphosphinoylmethyl-N-(4-bromo-2-cyanophenyl)benzamide]", "values": [{"measurement": "Number of polyps by polyp diameter (FIG. 1)", "setting": "400 ppm and 800 ppm in feed, Min mice, polyp diameter (mm)", "value": "reduction in the number of polyps of all sizes"}, {"measurement": "Number of polyps/mouse, colon", "setting": "[1]", "value": "0.4 ± 0.2", "unit": "polyps/mouse"}, {"measurement": "Number of polyps/mouse, small intestine, central", "setting": "[1]", "value": "16.1 ± 3.8", "unit": "polyps/mouse"}, {"measurement": "Number of polyps/mouse, small intestine, distal", "setting": "[1]", "value": "33.0 ± 6.5", "unit": "polyps/mouse"}, {"measurement": "Number of polyps/mouse, small intestine, proximal", "setting": "[1]", "value": "8.5 ± 1.4", "unit": "polyps/mouse"}, {"measurement": "Number of polyps/mouse, total", "setting": "[1]", "value": "58.0 ± 10.8", "unit": "polyps/mouse"}, {"measurement": "Number of polyps, percentage of the result for the 0 dose (control) group, small intestine, central", "setting": "400 ppm in feed for 13 weeks", "value": "(43) percentage"}, {"measurement": "Number of polyps, percentage of the result for the 0 dose (control) group, small intestine, distal", "setting": "400 ppm in feed for 13 weeks", "value": "(55) percentage"}, {"measurement": "Number of polyps, percentage of the result for the 0 dose (control) group, small intestine, proximal", "setting": "400 ppm in feed for 13 weeks", "value": "(37)^d percentage"}, {"measurement": "Number of polyps, percentage of the result for the 0 dose (control) group, colon", "setting": "[2]", "value": "(38)^c percentage"}, {"measurement": "Number of polyps, percentage of the result for the 0 dose (control) group, total", "setting": "[2]", "value": "(48)^c percentage"}, {"measurement": "Mice that died during the experiment (death due to bleeding from polyps)", "setting": "400 ppm in feed, group of 10 Min mice, 13 weeks, 3 died in the control group", "value": 2, "unit": "mice"}, {"measurement": "Number of polyps/mouse, colon", "setting": "[3]", "value": "0.3 ± 0.2", "unit": "polyps/mouse"}, {"measurement": "Number of polyps/mouse, small intestine, central", "setting": "[3]", "value": "13.8 ± 2.6", "unit": "polyps/mouse"}, {"measurement": "Number of polyps/mouse, small intestine, distal", "setting": "[3]", "value": "30.5 ± 5.0", "unit": "polyps/mouse"}, {"measurement": "Number of polyps/mouse, small intestine, proximal", "setting": "[3]", "value": "5.9 ± 1.0", "unit": "polyps/mouse"}, {"measurement": "Number of polyps/mouse, total", "setting": "[3]", "value": "50.5 ± 7.8", "unit": "polyps/mouse"}, {"measurement": "Number of polyps, percentage of the result for the 0 dose (control) group, small intestine, proximal", "setting": "800 ppm in feed for 13 weeks", "value": "(26)^d percentage"}, {"measurement": "Number of polyps, percentage of the result for the 0 dose (control) group, colon", "setting": "[4]", "value": "(30)^c percentage"}, {"measurement": "Number of polyps, percentage of the result for the 0 dose (control) group, small intestine, central", "setting": "[4]", "value": "(37)^c percentage"}, {"measurement": "Number of polyps, percentage of the result for the 0 dose (control) group, small intestine, distal", "setting": "[4]", "value": "(51)^c percentage"}, {"measurement": "Number of polyps, percentage of the result for the 0 dose (control) group, total", "setting": "[4]", "value": "(42)^c percentage"}, {"measurement": "Polyp suppression effect", "setting": "dosage of either 400 ppm or 800 ppm in feed, Min mice", "value": "excellent polyp suppression effect"}]}
